Literature values in PubChem BioAssay AID1259409 (Chemical Carcinogenesis Research Information System (CCRIS), 2018).
“And” between values parts separate entries of the source, which are not always exact repeats. Equal entries are not always repeated.

System: rodent chemically induced tumor inhibition, incidence and multiplicity
Assay: CCRIS tumor inhibitor studies

## NCCc1cc(O)c(O)cc1O
Carcinogen: AZOXYMETHANE, 25843-45-2, Dose [Inhibitor]: 0, 42 MG/KG BW IN 0.9% SALINE TWICE ON FIRST DAY THEN 0, 105 MG/KG 1/2 WK FOR DURATION OF STUDY (STUDY DURATION: 35 WK), Dose [Inhibitor]: 0, 42 MG/KG BW IN 0.9% SALINE TWICE ON FIRST DAY THEN 0, 105 MG/KG 1/2 WK FOR DURATION OF STUDY (STUDY DURATION: 35 WK), Route [Inhibitor]: INTRAPERITONEAL, Species: RAT, Strain/Sex: WISTAR/MALE, Target Tissue: Type of Lesion: COLON: TUMOR, Dose [Carcinogen]: 7.4 MG/KG BW IN 0.9% SALINE 1/WK FOR 10 WK, Promoter: NONE USED
  tumour outcome (control, treated, inhibition, significance): 14/20 (70%), 4/17 (24%), 66%, p<0.02
Carcinogen: N-METHYL-N'-NITRO-N-NITROSOGUANIDINE, 70-25-7, Dose [Inhibitor]: 0, 42 MG/KG 2/24 HR BEGINNING POST CARCINOGEN TREATMENT THEN 1 WK LATER 105 MG/KG 1/2 WK (STUDY DURATION: 52 WK), Route [Inhibitor]: INTRAPERITONEAL, Species: RAT, Strain/Sex: WISTAR/MALE, Target Tissue: Type of Lesion: STOMACH: ADENOCARCINOMA, Dose [Carcinogen]: 75 UG/ML IN DRINKING WATER FOR 25 WK, Promoter: NONE USED
  tumour outcome (control, treated, inhibition, significance): 16/20 (80%), 9/20 (45%), 44%, p<0.05

## CC(C)=CCc1cc(/C=C/C(=O)O)cc(CC=C(C)C)c1O
Carcinogen: FERRIC NITRILOTRIACETATE, 16448-54-7, Dose [Inhibitor]: 0, 350 UG/MOUSE IN OLIVE OIL TWICE/D FOR 5 D/WK FOR 1 YR BEGINNING POST CARCINOGEN TREATMENT (STUDY DURATION: 1 YR AND 8, Route [Inhibitor]: ORAL, Species: MOUSE, Strain/Sex: DDY/MALE, Target Tissue: Type of Lesion: KIDNEY: CARCINOMA, Dose [Carcinogen]: 43.6 MG/KG BW/D TWICE/WK FOR FIRST 8 WK, Promoter: NONE
  tumour outcome (control, treated, inhibition, significance): 1/9 (11%), 0/6 (0%), 100%, not significant

## C=CCN=C=S
Carcinogen: 4-(METHYLNITROSAMINO)-1-(3-PYRIDYL)-1-BUTANONE, 64091-91-4, Dose [Inhibitor]: 0, 1 UMOL ONCE 2 HR PRIOR TO CARCINOGEN DOSE (STUDY DURATION: 16 WK), Route [Inhibitor]: GAVAGE, Species: MOUSE, Strain/Sex: STRAIN-A/FEMALE, Target Tissue: Type of Lesion: LUNG: ADENOMA, Dose [Carcinogen]: 10 UMOL IN 0.1 ML SALINE ONCE, Promoter: NONE USED
  tumour outcome (control, treated, inhibition, significance): 100%, 100%, 0%, not significant
Carcinogen: 4-(METHYLNITROSAMINO)-1-(3-PYRIDYL)-1-BUTANONE, 64091-91-4, Dose [Inhibitor]: 0, 5 UMOL ONCE 2 HR PRIOR TO CARCINOGEN DOSE (STUDY DURATION: 16 WK), Route [Inhibitor]: GAVAGE, Species: MOUSE, Strain/Sex: STRAIN-A/FEMALE, Target Tissue: Type of Lesion: LUNG: ADENOMA, Dose [Carcinogen]: 10 UMOL IN 0.1 ML SALINE ONCE, Promoter: NONE USED
  tumour outcome (control, treated, inhibition, significance): 100%, 100%, 0%, not significant

## CC(C)(C)c1cc(O)c(C(C)(C)C)cc1O
Carcinogen: BENZO[A]PYRENE, 50-32-8, Dose [Inhibitor]: 0.03 MMOL/G OF DIET DAILY STARTING 8 D BEFORE AND CONTINUING THROUGH 3 D AFTER CARCINOGEN TREATMENT FOLLOWED BY OBSERVAT, Route [Inhibitor]: ORAL, Species: MOUSE, Strain/Sex: ICR/FEMALE, Target Tissue: Type of Lesion: FORESTOMACH: NEOPLASM, Dose [Carcinogen]: 1 MG IN 0.2 ML CORN OIL 2/WK FOR 4 WK, Promoter: NONE USED
  tumour outcome (control, treated, inhibition, significance): 90%, 95%, -6%, not significant

## CC1=C(/C=C/C(C)=C/C=C/C(C)=C\C(=O)Nc2ccc(O)cc2)C(C)(C)CCC1
Carcinogen: N-BUTYL-N-(4-HYDROXYBUTYL)NITROSAMINE, 3817-11-6, Dose [Inhibitor]: 1.5 MMOL/KG DIET DAILY FOR 153 D STARTING ONE WK AFTER THE FINAL CARCINOGEN DOSE (STUDY DURATION: 210 D), Route [Inhibitor]: ORAL, Species: MOUSE, Strain/Sex: BDF/MALE, Target Tissue: Type of Lesion: URINARY BLADDER: TRANSITIONAL CELL CARCINOMA, Dose [Carcinogen]: 7.5 MG 1/WK FOR 8 WK, Promoter: NONE USED
  tumour outcome (control, treated, inhibition, significance): 35/99 (35%), 21/99 (21%), 40%, p<0.05
Carcinogen: N-BUTYL-N-(4-HYDROXYBUTYL)NITROSAMINE, 3817-11-6, Dose [Inhibitor]: 1.5 MMOL/KG/D IN DIET FOR 153 D STARTING 1 WK POST CARCINOGEN TREATMENT (STUDY DURATION: 210 D), Route [Inhibitor]: ORAL, Species: MOUSE, Strain/Sex: BDF/MALE, Target Tissue: Type of Lesion: URINARY BLADDER: TRANSITIONAL CELL CARCINOMA, Dose [Carcinogen]: 7.5 MG 1/WK FOR 8 WK, Promoter: NONE USED
  tumour outcome (control, treated, inhibition, significance): 35/99 (35%), 21/99 (21%), 40%, p<0.05

## CC(O)C(=O)O (stereo unspecified)
Carcinogen: 1,2-DIMETHYLHYDRAZINE, 540-73-8, Dose [Inhibitor]: 0, 3.2 G/L IN DRINKING WATER FOR DURATION OF STUDY (STUDY DURATION: 34 WK), Route [Inhibitor]: ORAL, Species: RAT, Strain/Sex: SPRAGUE-DAWLEY/MALE, FEMALE, Target Tissue: Type of Lesion: COLON: TUMOR, Dose [Carcinogen]: 21 MG/KG 1/WK FOR 18 WK, Promoter: NONE USED
  outcome: 28/29 (97%), 18/28 (64%), not calculated

## Cc1cc(C)c(C)c(O)c1C
Carcinogen: BENZO[A]PYRENE, 50-32-8, Dose [Inhibitor]: 0.03 MMOL/G OF DIET DAILY STARTING 7 D BEFORE AND CONTINUING THROUGH 3 D AFTER CARCINOGEN TREATMENT FOLLOWED BY OBSERVAT, Route [Inhibitor]: ORAL, Species: MOUSE, Strain/Sex: ICR/FEMALE, Target Tissue: Type of Lesion: FORESTOMACH: NEOPLASM, Dose [Carcinogen]: 1 MG IN 0.2 ML CORN OIL 2/WK FOR 4 WK, Promoter: NONE USED
  tumour outcome (control, treated, inhibition, significance): 97%, 88%, 9%, not significant and 94%, 89%, 5%, not significant

## Cc1cc(O)cc(=O)o1
Carcinogen: BENZO[A]PYRENE, 50-32-8, Dose [Inhibitor]: 0.034 MMOL/G IN DIET FOR 5 WK BEGINNING 1 WK PRIOR TO FIRST CARCINOGEN DOSE AND CONTINUING FOR 3 D POST LAST CARCINOGEN, Route [Inhibitor]: ORAL, Species: MOUSE, Strain/Sex: ICR/FEMALE, Target Tissue: Type of Lesion: FORESTOMACH: TUMOR, Dose [Carcinogen]: 1 MG IN 0.2 ML CORN OIL 2/WK FOR 4 WK STARTING, Promoter: NONE USED
  tumour outcome (control, treated, inhibition, significance): 94%, 85%, 10%, not significant

## CCCCCCCCCCCC
Carcinogen: 4-(METHYLNITROSAMINO)-1-(3-PYRIDYL)-1-BUTANONE, 64091-91-4, Dose [Inhibitor]: 0, 1 UMOL IN 0.1 ML CORN OIL ONCE 2 HR PRIOR TO CARCINOGEN DOSE (STUDY DURATION: 16 WK), Route [Inhibitor]: GAVAGE, Species: MOUSE, Strain/Sex: STRAIN-A/FEMALE, Target Tissue: Type of Lesion: LUNG: ADENOMA, Dose [Carcinogen]: 10 UMOL IN 0.1 ML SALINE ONCE, Promoter: NONE USED
  tumour outcome (control, treated, inhibition, significance): 100%, 100%, 0%, not significant

## C=CC1=C(C)C2=NC1=CC1=NC(=CC3=C(C)C4=C(O)[C@H](C(=O)OC)C(=C5NC(=C2)[C@@H](C)[C@@H]5CCC(=O)O)C4=N3)C(CC)=C1C
Carcinogen: 7,12-DIMETHYLBENZ[A]ANTHRACENE, 57-97-6, Dose [Inhibitor]: 0, 16 NMOL IN 0.1 ML ACETONE 2/WK FOR 20 WK APPLIED 40 MIN PRIOR TO EACH PROMOTER DOSE (STUDY DURATION: 21 WK), Route [Inhibitor]: DERMAL, Species: MOUSE, Strain/Sex: ICR/FEMALE, Target Tissue: Type of Lesion: SKIN: TUMOR, Dose [Carcinogen]: 0.19 UMOL IN 0.1 ML ACETONE ONCE, Promoter: 12-O-TETRADECANOYLPHORBOL-13-ACETATE, 16561-29-8
  tumour outcome (control, treated, inhibition, significance): 100%, 72%, 28%, p<0.005
Carcinogen: 7,12-DIMETHYLBENZ[A]ANTHRACENE, 57-97-6, Dose [Inhibitor]: 0, 160 NMOL IN 0.1 ML ACETONE 2/WK FOR 20 WK APPLIED 40 MIN PRIOR TO EACH PROMOTER DOSE (STUDY DURATION: 21 WK), Route [Inhibitor]: DERMAL, Species: MOUSE, Strain/Sex: ICR/FEMALE, Target Tissue: Type of Lesion: SKIN: TUMOR, Dose [Carcinogen]: 0.19 UMOL IN 0.1 ML ACETONE ONCE, Promoter: 12-O-TETRADECANOYLPHORBOL-13-ACETATE, 16561-29-8
  tumour outcome (control, treated, inhibition, significance): 100%, 69%, 31%, p<0.005

## CC1(C)CC[C@]2(CO)CC[C@]3(C)C(=CC[C@@H]4[C@@]5(C)CC[C@H](O)[C@@](C)(CO)[C@@H]5CC[C@]43C)[C@@H]2C1
Carcinogen: 7,12-DIMETHYLBENZ[A]ANTHRACENE, 57-97-6, Dose [Inhibitor]: 81 NMOL IN 100 µL ACETONE/DMSO (99:1) APPLIED 40 MIN PRIOR TO EACH PROMOTER DOSE (STUDY DURATION: 18 WK), Route [Inhibitor]: DERMAL, Species: MOUSE, Strain/Sex: ICR, Target Tissue: Type of Lesion: SKIN: CARCINOMA, Dose [Carcinogen]: 100 UG ONCE, Promoter: 12-O-TETRADECANOYLPHORBOL-13-ACETATE, 16561-29-8
  tumour outcome (control, treated, inhibition, significance): 100%, 40%, 60%, not calculated

## O=C(CCC(O)c1ccccc1)c1ccccc1 (stereo unspecified)
Carcinogen: 4-(METHYLNITROSAMINO)-1-(3-PYRIDYL)-1-BUTANONE, 64091-91-4, Dose [Inhibitor]: 0, 25 UMOL IN 0.1 ML CORN OIL ONCE 2 HR PRIOR TO CARCINOGEN DOSE (STUDY DURATION: 16 WK), Route [Inhibitor]: GAVAGE, Species: MOUSE, Strain/Sex: STRAIN-A/FEMALE, Target Tissue: Type of Lesion: LUNG: TUMOR, Dose [Carcinogen]: 10 UMOL IN 0.1 ML SALINE ONCE, Promoter: NONE USED
  tumour outcome (control, treated, inhibition, significance): 100%, 100%, 0%, not significant
